± gives the standard deviation of the averaged measurements.
Key:
Assay in all cases: level (log10 ratio to DMSO vehicle control); higher = higher biomarker level / cell amount than vehicle control
[1] = compound: OCC(F)(F)OC(F)(F)C(F)(F)OC(F)(F)CO [1H,1H,8H,8H-Perfluoro-3,6-dioxaoctane-1,8-diol]; settings: in DMSO
Method: (§1)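 BioMAP Diversity Plus panel of 12 human primary cell co-culture systems (3C, 4H, LPS, SAg, BT, BF4T, BE3C, CASM3C, HDF3CGF, KF3CT, MyoF, Mphg). Compounds were added 1 h before stimulation and left for 24 h (MyoF 48 h; BT 72 h for soluble read-outs or 6 d for IgG). Biomarkers were read by ELISA, cytotoxicity by SRB, PBMC viability and proliferation by Alamar Blue. Each well value was divided by the mean of 8 DMSO control wells on the same plate and log10 transformed; duplicate blinded samples were tested at 4 concentrations.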

[2] = compound: CCN(CCO)S(=O)(=O)C(F)(F)C(F)(F)C(F)(F)C(F)(F)C(F)(F)C(F)(F)C(F)(F)C(F)(F)F [N-Ethyl-N-(2-hydroxyethyl)perfluorooctanesulfonamide]; settings: in DMSO
Method: as §1

[3] = compound: O=C(O)C(F)(F)OC(F)(F)C(F)(F)OC(F)(F)F [Perfluoro-3,6-dioxaheptanoic acid]; settings: in DMSO
Method: as §1

[4] = compound: FC(F)(F)C(F)(C(F)(F)F)C(F)(F)C(F)(F)CC1CO1 [3-(Perfluoro-3-methylbutyl)-1,2-propenoxide]; settings: in DMSO
Method: as §1

[5] = compound: O=C(O)C(F)(F)C(F)(F)C(F)(F)C(F)(F)C(F)(F)C(F)(F)C(F)(F)C(F)(F)C(F)(F)F [Perfluorodecanoic acid]; settings: in DMSO
Method: as §1

[6] = compound: OCCCC(F)(F)C(F)(F)C(F)(F)C(F)(F)C(F)(F)C(F)(F)C(F)(F)F [7:3 Fluorotelomer alcohol]; settings: 6700 nM; in DMSO
Method: as §1

[7] = compound: O=C(O)C(F)(F)C(F)(F)F [Perfluoropropanoic acid]; settings: in DMSO
Method: as §1

| Test System | level (log10) ([1]; 6700 nM) | level (log10) ([1]; 20000 nM) | level (log10) ([1]; 60000 nM) | level (log10) ([2]; 6700 nM) | level (log10) ([2]; 20000 nM) | level (log10) ([3]; 6700 nM) | level (log10) ([3]; 20000 nM) | level (log10) ([3]; 60000 nM) | level (log10) ([4]; 6700 nM) | level (log10) ([4]; 20000 nM) | level (log10) ([5]; 6700 nM) | level (log10) ([5]; 20000 nM) | level (log10) [6] | level (log10) ([7]; 6700 nM) | level (log10) ([7]; 20000 nM) | level (log10) ([7]; 60000 nM) |
| --- | --- | --- | --- | --- | --- | --- | --- | --- | --- | --- | --- | --- | --- | --- | --- | --- |
| BT:PBMC Cytotoxicity | 0.003 ± 0.017 | -0.0035 ± 0.013 | -0.009 | -0.003 ± 0.027 | -0.0615 ± 0.0035 | -0.011 ± 0.0099 | 0 ± 0.017 | 0.0015 ± 0.071 | -0.0055 ± 0.023 | 0.005 ± 0.013 | 0.0195 ± 0.023 | 0.045 ± 0.045 | 0.0245 ± 0.035 | -0.0215 ± 0.056 | -0.013 ± 0.027 | -0.005 ± 0.0085 |
| BF4T:CCL26/Eotaxin-3 | 0.0155 ± 0.0092 | 0.005 ± 0.035 | 0.024 ± 0.044 | 0.0905 ± 0.029 | 0.141 ± 0.0028 | -0.039 ± 0.048 | -0.0195 ± 0.021 | -0.0615 ± 0.1 | 0.012 ± 0.028 | -0.0095 ± 0.016 | -0.083 ± 0.038 | -0.509 ± 0.029 | -0.088 ± 0.17 | -0.004 ± 0.031 | -0.0105 ± 0.04 | 0.03 ± 0.044 |
| 3C:SRB | -0.01 ± 0.0085 | -0.0105 ± 0.0021 | -0.0255 ± 0.0021 | -0.0815 ± 0.021 | -0.217 ± 0.011 | -0.01 ± 0.0071 | -0.022 ± 0.0057 | -0.008 ± 0.0042 | 0.0045 ± 0.0064 | -0.01 ± 0.0057 | 0.0095 ± 0.0021 | -0.005 ± 0.0042 | -0.005 ± 0.0028 | -0.0115 ± 0.0035 | -0.009 ± 0.0028 | -0.0065 ± 0.0021 |
| BE3C:CD54/ICAM-1 | 0.0195 ± 0.013 | 0.0045 ± 0.015 | 0.0055 ± 0.022 | 0.0705 ± 0.033 | 0.0555 ± 0.013 | -0.032 ± 0.0042 | -0.0125 ± 0.0021 | -0.0325 ± 0.015 | -0.0095 ± 0.019 | -0.0065 ± 0.0092 | 0.085 | -1.02 ± 0.012 | -0.0125 ± 0.00071 | -0.025 ± 0.017 | 0 ± 0.0014 | 0.007 ± 0.016 |
| 3C:HLA-DR | -0.0185 ± 0.012 | -0.0095 ± 0.016 | 0.0005 ± 0.036 | 0.013 ± 0.025 | -0.0625 ± 0.016 | -0.035 ± 0.033 | -0.0075 ± 0.0078 | -0.0115 ± 0.021 | 0.0085 ± 0.00071 | 0.018 ± 0.018 | -0.0035 ± 0.0021 | -0.006 ± 0.013 | -0.002 ± 0.0057 | -0.003 ± 0.0028 | 0.0035 ± 0.0035 | 0.011 ± 0.011 |
| 3C:CXCL8/IL-8 | 0.013 ± 0.014 | 0.014 ± 0.04 | 0.021 ± 0.081 | 0.02 ± 0.044 | -0.0985 ± 0.1 | 0.0235 ± 0.012 | 0.002 ± 0.035 | 0.0825 ± 0.074 | -0.0065 ± 0.018 | 0.008 ± 0.014 | 0.009 ± 0.013 | 0.0155 ± 0.021 | 0.0075 ± 0.0035 | 0.007 ± 0.03 | -0.001 ± 0.02 | 0.0255 ± 0.047 |
| BF4T:CD106/VCAM-1 | -0.0125 ± 0.015 | -0.006 ± 0.027 | 0.0245 ± 0.053 | -0.039 ± 0.0085 | -0.0615 ± 0.0092 | -0.035 ± 0.055 | -0.0205 ± 0.032 | -0.01 ± 0.017 | 0.0025 ± 0.03 | 0.0425 ± 0.032 | -0.026 ± 0.0085 | -0.311 ± 0.0042 | -0.0255 ± 0.0021 | -0.021 ± 0.065 | 0.003 ± 0.072 | 0.026 ± 0.095 |
| BF4T:uPA | -0.0065 ± 0.028 | -0.0065 ± 0.03 | -0.007 ± 0.03 | 0.008 ± 0.0028 | 0.0055 ± 0.012 | -0.04 ± 0.027 | -0.011 ± 0.011 | 0.0005 ± 0.025 | -0.0115 ± 0.0078 | -0.0325 ± 0.0078 | 0.015 ± 0.011 | -0.235 ± 0.043 | -0.011 ± 0.0057 | -0.0035 ± 0.033 | 0.0105 ± 0.037 | 0.019 ± 0.033 |
| 3C:Proliferation | -0.066 ± 0.088 | 0.037 ± 0.035 | -0.0475 ± 0.064 | -0.267 ± 0.087 | -0.947 ± 0.17 | -0.0305 ± 0.025 | -0.031 ± 0.05 | -0.0205 ± 0.0064 | -0.014 ± 0.016 | -0.002 ± 0.042 | 0.0395 ± 0.032 | 0.0005 ± 0.044 | -0.093 ± 0.095 | 0.019 ± 0.016 | 0.024 ± 0.073 | -0.051 ± 0.083 |
| BF4T:PAI-I | -0.005 ± 0.02 | -0.015 ± 0.011 | -0.001 ± 0.013 | 0.014 ± 0.0014 | -0.0105 ± 0.00071 | -0.0215 ± 0.019 | -0.018 ± 0.033 | -0.002 ± 0.011 | -0.0045 ± 0.013 | 0.0005 ± 0.016 | 0.0185 ± 0.00071 | -0.119 ± 0.043 | -0.0105 ± 0.005 | -0.004 ± 0.023 | 0.01 ± 0.013 | 0.029 ± 0.044 |
| BT:B cell Proliferation | -0.011 ± 0.0071 | 0 ± 0.0014 | -0.0145 ± 0.0078 | 0.0165 ± 0.005 | -0.0405 ± 0.059 | 0.015 ± 0.0028 | 0.031 ± 0.048 | 0.0535 ± 0.042 | -0.002 ± 0.025 | 0.017 ± 0.0099 | 0.0135 ± 0.04 | 0.0395 ± 0.03 | -0.011 ± 0.0042 | 0.0125 ± 0.044 | -0.041 ± 0.0085 | -0.002 ± 0.051 |
| BT:sIL-6 | 0.057 ± 0.0099 | 0.0215 ± 0.021 | -0.0445 ± 0.026 | 0.078 ± 0.0014 | -0.049 ± 0.054 | 0.021 ± 0.059 | -0.009 ± 0.059 | -0.0235 ± 0.064 | 0.0275 ± 0.043 | -0.0215 ± 0.005 | -0.029 ± 0.071 | 0.077 ± 0.058 | -0.0125 ± 0.073 | 0.021 ± 0.023 | -0.0015 ± 0.0035 | 0.035 ± 0.024 |
| LPS:CD142/Tissue Factor | -0.006 ± 0.014 | -0.0155 ± 0.021 | -0.0135 ± 0.0035 | 0.139 ± 0.038 | 0.312 ± 0.037 | -0.0335 ± 0.011 | 0.0145 ± 0.023 | 0.009 ± 0.0028 | -0.017 ± 0.088 | 0.031 ± 0.096 | 0.018 ± 0.0085 | -0.011 ± 0.0028 | -0.0245 ± 0.0064 | 0.001 ± 0.0028 | 0.0055 ± 0.028 | 0.0235 ± 0.0078 |
| BF4T:CD54/ICAM-1 | -0.005 ± 0.0057 | 0.008 ± 0.0028 | -0.0005 ± 0.0035 | 0.0495 ± 0.016 | 0.032 ± 0.0042 | 0.0115 ± 0.005 | -0.009 ± 0.0028 | -0.012 ± 0.0071 | 0.0005 ± 0.018 | -0.011 ± 0.021 | -0.0305 ± 0.0064 | -0.181 ± 0.011 | -0.0065 ± 0.022 | 0.006 ± 0.021 | -0.0045 ± 0.047 | 0.018 ± 0.027 |
| SAg:SRB | -0.0115 ± 0.012 | -0.0195 ± 0.0092 | -0.0195 ± 0.016 | -0.046 ± 0.0057 | -0.118 ± 0.024 | -0.0085 ± 0.0035 | -0.0175 ± 0.00071 | -0.008 ± 0.0085 | -0.006 ± 0.023 | -0.0025 ± 0.0021 | -0.0035 ± 0.012 | -0.008 ± 0.013 | 0.0045 ± 0.013 | -0.01 ± 0.0028 | -0.014 ± 0.0042 | -0.0035 ± 0.00071 |
| LPS:CXCL8/IL-8 | 0.002 ± 0.0071 | 0.0075 ± 0.015 | 0.0075 ± 0.039 | 0.039 ± 0.0042 | -0.003 ± 0.0028 | 0.007 ± 0.028 | 0.0265 ± 0.0064 | 0.0505 ± 0.0078 | 0.0325 ± 0.043 | 0.045 ± 0.072 | 0.027 ± 0.0071 | 0.0115 ± 0.0064 | -0.0305 ± 0.011 | -0.013 ± 0.02 | -0.001 ± 0.0085 | -0.002 ± 0.0071 |
| 4H:CD62P/P-selectin | 0.0225 ± 0.091 | 0.034 ± 0.055 | 0.0615 ± 0.046 | -0.079 ± 0.0014 | -0.142 ± 0.044 | -0.0245 ± 0.061 | 0.0025 ± 0.0092 | -0.0185 ± 0.018 | -0.0085 ± 0.0064 | 0.0305 ± 0.012 | 0.087 ± 0.0071 | 0.093 ± 0.033 | 0.04 ± 0.027 | -0.0215 ± 0.0021 | -0.012 ± 0.0042 | 0.0105 ± 0.026 |
| BF4T:MMP-3 | -0.01 ± 0.045 | -0.0285 ± 0.057 | -0.0095 ± 0.037 | -0.0145 ± 0.025 | 0.0505 ± 0.023 | -0.0065 ± 0.029 | -0.0075 ± 0.025 | 0.0065 ± 0.0078 | 0.0005 ± 0.018 | -0.011 ± 0.0028 | 0.0215 ± 0.023 | -0.14 ± 0.075 | -0.013 ± 0.014 | -0.018 ± 0.0028 | 0.0015 ± 0.026 | 0.0085 ± 0.028 |

Reference: the supplement of paper PMC10331698
